Laboratory results as given in US9737075B2, “Synergistic benzoxaborole-containing anti-fungicidal composition” (The Penn State Research Foundation, priority 2015, dated 2017).
In brackets after ≈: the same amount, converted by molar mass. Like-named read-outs stand apart in the source and are kept apart here.

Legend:
Type in all cases: cell-based
Penicillium chrysogenum = assay: Broth microdilution MIC of individual antifungals; conditions: individual antifungal, 25% PDB, about 25° C., 72 hours, range over N independent triplicate studies; for MIC: read-out: Independent MIC
Aspergillus niger = assay: Broth microdilution MIC of individual antifungals; conditions: for MIC: read-out: Independent MIC
Fusarium graminearum = assay: microbe, parasite or virus in culture; conditions: for MIC: Fusarium graminearum, 72 h, read-out: Independent MIC
Candida albicans = assay: Broth microdilution MIC of individual antifungals; conditions: for MIC: read-out: Independent MIC
Aspergillus flavus = assay: Broth microdilution MIC of individual antifungals; conditions: individual antifungal, 25% PDB, about 25° C., 72 hours, range over N independent triplicate studies; for MIC: read-out: Independent MIC
Phytophthora pini = assay: Broth microdilution MIC of individual antifungals; conditions: individual antifungal, 25% PDB, about 25° C., 72 hours, range over N independent triplicate studies
Botrytis cinerea 10-1728 = assay: Broth microdilution MIC of individual antifungals; conditions: for MIC: read-out: Independent MIC
Magnaporthe grisea = assay: microbe, parasite or virus in culture; conditions: for MIC: Pyricularia oryzae, 72 h, read-out: Independent MIC
[1] = test system: Fusarium solani f. sp. pisi (MP VI); assay: Broth microdilution MIC of individual antifungals; conditions: Fusarium solani f. sp. pisi (MP VI), individual antifungal, 25% PDB, about 25° C., 72 hours, range over N independent triplicate studies; for MIC: read-out: Independent MIC
Botrytis cinerea B17 = assay: Broth microdilution MIC of individual antifungals; conditions: Botrytis cinerea B17; individual antifungal, 25% PDB, about 25° C., 72 hours; range over N independent triplicate studies; read-out: Independent MIC
[2] = test system: Mycosphaerella zeae-maydis; assay: Broth microdilution MIC of individual antifungals; conditions: individual antifungal, 25% PDB, about 25° C., 72 hours, range over N independent triplicate studies; for MIC: Didymella maydis
Alternaria solani = assay: Broth microdilution MIC of individual antifungals; conditions: for MIC: read-out: Independent MIC
Mucor sp. = assay: Broth microdilution MIC of individual antifungals; conditions: individual antifungal, 25% PDB, about 25° C., 72 hours, range over N independent triplicate studies
Fusarium verticillioides = assay: Broth microdilution MIC of individual antifungals; conditions: for MIC: read-out: Independent MIC
Stachybotrys chartarum = assay: Broth microdilution MIC of individual antifungals; conditions: individual antifungal, 25% PDB, about 25° C., 72 hours, range over N independent triplicate studies, read-out: Independent MIC
Sclerotinia homoeocarpa = assay: Broth microdilution MIC of individual antifungals; conditions: for MIC: Clarireedia homoeocarpa, read-out: Independent MIC
Rhizopus sp. = assay: Broth microdilution MIC of individual antifungals; conditions: Rhizopus sp., individual antifungal, 25% PDB, about 25° C., 72 hours, range over N independent triplicate studies; for MIC: Rhizopus, 72 h, read-out: Independent MIC
[3] = test system: Colletotrichum orbiculare; assay: Broth microdilution MIC of individual antifungals; conditions: for MIC: read-out: Independent MIC
Aspergillus fumigatus = assay: Broth microdilution MIC of individual antifungals; conditions: for MIC: read-out: Independent MIC
Aureobasidium pullulans = assay: Broth microdilution MIC of individual antifungals; conditions: read-out: Independent MIC
Rhizoctonia solani = assay: Broth microdilution MIC of individual antifungals; conditions: for MIC: read-out: Independent MIC
[4] = individual antifungal, 25% PDB, about 25° C., 72 hours, range over N independent triplicate studies
[5] = 101728, Botrytis cinerea 10-1728, individual antifungal, 25% PDB, about 25° C., 72 hours, range over N independent triplicate studies
[6] = Sclerotinia homoeocarpa, individual antifungal, 25% PDB, about 25° C., 72 hours, range over N independent triplicate studies
[7] = Botrytis cinerea 10-1728, individual antifungal, 25% PDB, about 25° C., 72 hours, range over N independent triplicate studies

| Molecule | MIC (Penicillium chrysogenum) [µg/mL] | MIC (Aspergillus niger; [4]) [µg/mL] | MIC (Fusarium graminearum) [µg/mL] | MIC (Candida albicans; [4]) [µg/mL] | MIC (Aspergillus flavus) [µg/mL] | MIC (Phytophthora pini) [µg/mL] | MIC (Botrytis cinerea 10-1728; [5]) [µg/mL] | MIC (Magnaporthe grisea) [µg/mL] | MIC [2] [µg/mL] | MIC (Alternaria solani; [4]) [µg/mL] | MIC (Mucor sp.) [µg/mL] | MIC (Fusarium verticillioides; [4]) [µg/mL] | MIC (Sclerotinia homoeocarpa; [6]) [µg/mL] | Independent MIC (Rhizopus sp.) | MIC (Rhizopus sp.) [µg/mL] | MIC [3, 4] [µg/mL] | MIC (Aspergillus fumigatus; [4]) [µg/mL] | MIC (Rhizoctonia solani; [4]) [µg/mL] | other results |
| --- | --- | --- | --- | --- | --- | --- | --- | --- | --- | --- | --- | --- | --- | --- | --- | --- | --- | --- | --- |
| CCCC1COC(Cn2cncn2)(c2ccc(Cl)cc2Cl)O1 (stereo not shown) [Propiconazole, propiconazole] | 6.25 to 12.5 | 12.5 | 12.5 to 25 (≈ 36.5 to 73.1 µM) | 100 to 200 | 6.25 to 12.5 | 6.25 | 1.25 to 3.12 | 1.56 (≈ 4.56 µM) | 3 to 6.25 | 100 to 160 | 50 | 0.5 to 2 | 0.5 to 1 | 12.5 µg/mL | 12.5 to 24 | 3.12 | 2.5 to 6.25 |  | MIC [1]: 200 µg/mL; MIC (Botrytis cinerea B17): 1 to 2 µg/mL; MIC (Stachybotrys chartarum): 6.25 to 12.5 µg/mL; MIC (Aureobasidium pullulans; 72 h): 1.56 to 6 µg/mL |
| maneb |  |  |  |  |  |  |  |  |  |  |  |  |  | (50-100) μg/mL |  |  |  |  | Independent MIC (Penicillium chrysogenum): 25 µg/mL; Independent MIC (Aspergillus niger; [4]): (50-100) μg/mL; Independent MIC (Fusarium graminearum): 12.5 µg/mL; Independent MIC (Candida albicans; [4]): 1.56 µg/mL; Independent MIC (Rhizoctonia solani; [4]): (50-100) μg/mL; Independent MIC (Aspergillus flavus): (12.5-25)^ μg/mL; Independent MIC (Phytophthora pini): 3.125 µg/mL; Independent MIC (Botrytis cinerea 10-1728; [7]): (12.5-40)^ μg/mL; Independent MIC (Magnaporthe grisea): 1.56 µg/mL; Independent MIC [1]: 25 µg/mL; Independent MIC [2]: 25 µg/mL; Independent MIC (Alternaria solani; [4]): (25-50) μg/mL; Independent MIC (Mucor sp.): (25-50) μg/mL; Independent MIC (Fusarium verticillioides; [4]): 6.25 µg/mL; Independent MIC (Sclerotinia homoeocarpa; [6]): 1.56 µg/mL; Independent MIC [3, 4]: (3.13-6.25) μg/mL; Independent MIC (Aspergillus fumigatus; [4]): 3.125 µg/mL |
| COC(=O)N(OC)c1ccccc1COc1ccn(-c2ccc(Cl)cc2)n1 [Pyraclostrobin, pyraclostrobin] | 0.1 to 0.4 | 25 to 50 | 200 (≈ 516 µM) |  |  | 1.56 | 200 | 0.02 to 0.025 (≈ 0.0516 to 0.0645 µM) | 2 to 4 | 50 to 100 | 100 |  | 0.5 |  | 50 | 3.12 | 20 to 25 |  | MIC [1]: 100 to 200 µg/mL; MIC (Botrytis cinerea B17): 3.75 to 8 µg/mL; MIC (Stachybotrys chartarum): 1.56 to 4 µg/mL; MIC (Aureobasidium pullulans; [4]): 0.188 to 0.78 µg/mL |
| O=[N+]([O-])c1cc(C(F)(F)F)c(Cl)c([N+](=O)[O-])c1Nc1ncc(C(F)(F)F)cc1Cl [Fluazinam, fluazinam] |  | 3.12 |  |  |  | 3.12 | 1 to 1.56 |  | 1 to 1.56 | 0.5 to 0.78 | 0.78 to 1 | 12.5 | 3.12 to 6.25 |  | 0.2 to 0.78 |  |  | 6.25 to 25 |  |
| [Cl][Sn]([c]1ccccc1)([c]1ccccc1)[c]1ccccc1 [Fentin Chloride, fentin chloride] |  |  |  |  |  |  |  |  |  |  |  |  |  | (0.39-0.78) μg/mL |  |  |  |  | Independent MIC (Penicillium chrysogenum): (0.1-0.2) μg/mL; Independent MIC (Aspergillus niger; [4]): (0.78-1) μg/mL; Independent MIC (Fusarium graminearum): (50-200) μg/mL; Independent MIC (Candida albicans; [4]): (0.78-1.56) μg/mL; Independent MIC (Rhizoctonia solani; [4]): (12.5-25)^ μg/mL; Independent MIC (Aspergillus flavus): (0.78-1) μg/mL; Independent MIC (Phytophthora pini): 0.098 µg/mL; Independent MIC (Botrytis cinerea 10-1728; [7]): (50-100) μg/mL; Independent MIC (Magnaporthe grisea): 1.25 µg/mL; Independent MIC [1]: (0.78-3.12) μg/mL; Independent MIC [2]: 50 µg/mL; Independent MIC (Alternaria solani; [4]): (10-12.5) μg/mL; Independent MIC (Mucor sp.): (1-1.56) μg/mL; Independent MIC (Fusarium verticillioides; [4]): (6.25-12.5) μg/mL; Independent MIC (Sclerotinia homoeocarpa; [6]): 12.5 µg/mL; Independent MIC [3, 4]: 1.56 µg/mL; Independent MIC (Aspergillus fumigatus; [4]): 0.78 µg/mL |
| Cc1ccc(-c2c(Cl)nc(C#N)n2S(=O)(=O)N(C)C)cc1 [Cyazofamid, cyazofamid] |  |  | 100 (≈ 308 µM) |  |  |  | 200 to 400 |  | 100 |  |  | 200 | 100 |  |  | 50 to 100 |  | 50 to 100 |  |
| CC(C)(C)C(O)(CCc1ccc(Cl)cc1)Cn1cncn1 (stereo not shown) [Tebuconazole, tebuconazole] |  | 3.12 |  | 100 to 200 | 3 to 3.12 |  | 1 to 1.56 |  | 50 to 100 | 25 to 50 | 12.5 to 15 | 1.56 to 3 | 0.39 to 0.78 |  | 0.78 | 1.56 to 3.13 | 0.78 to 1.56 | 3.12 to 6.25 |  |
| CCOP(=O)(Sc1ccccc1)Sc1ccccc1 [Edifenphos, edifenphos] |  |  |  |  |  | 100 |  | 6.25 (≈ 20.1 µM) | 200 to 400 |  | 50 to 100 |  |  |  |  |  |  |  | MIC (Rhizoctonia solani; 72 h): 200 to 400 µg/mL; MIC (Botrytis cinerea 10-1728; Botrytis cinerea, 101728, 72 h): 100 to 200 µg/mL; MIC (Alternaria solani; 72 h): 200 µg/mL; MIC (Fusarium verticillioides; 72 h): 200 to 400 µg/mL; MIC (Sclerotinia homoeocarpa; 72 h): 3.12 to 6.25 µg/mL; MIC (Aspergillus fumigatus; 72 h): 200 µg/mL |
| CC(C)OP(=O)(OC(C)C)SCc1ccccc1 [Iprobenfos, iprobenfos] |  |  | 200 to 400 (≈ 694 to 1390 µM) |  |  |  | 100 to 200 | 25 (≈ 86.7 µM) |  |  | 100 to 200 |  | 12.5 to 25 |  |  |  |  | 200 to 400 | MIC (Aspergillus niger; 72 h): 200 to 300 µg/mL; MIC (Candida albicans; 72 h): 200 to 400 µg/mL; MIC ([3]; 72 h): 12.5 to 25 µg/mL |
| CC(C1CC1)C(O)(Cn1cncn1)c1ccc(Cl)cc1 (stereo not shown) [Cyproconazole, cyproconazole] | 100 | 25 |  | 100 to 400 | 50 to 100 |  | 0.78 to 2 |  | 3.12 to 6 |  | 100 to 200 | 3 to 3.12 | 1.56 to 3.12 |  | 12.5 to 50 | 6.25 to 12.5 | 12.5 to 25 | 6.25 to 12.5 |  |
